Results published in US7098372B1, “Pharmaceutical compositions and methods of using secreted frizzled related protein” (Wyeth, priority 1999, dated 2006).

Experiments:
hOB SFRP mRNA [1] = test: Northern blot analysis of hOB SFRP mRNA expression; format: cell-based, human; conditions: for regulation of SFRP mRNA: SaOS-2 human osteosarcoma cells
Description: The hOB SFRP gene fragment was identified using RADE (rapid analysis of differential expression) technology as described by Shiue 1997 Drug Develop. Res. 41: 142–159, the whole of which is incorporated herein. Three hOB cell lines (hOB-03-C5, hOB-03-CE6 and hOB-01-C1), representing three distinct stages of differentiation (proliferative, mature and preosteocytic, respectively) were used to isolate and identify SFRP. The hOB cell lines were established and cultured as previously described (Bodine et al. 1996 J. Bone Miner. Res. 11: 806–819; Bodine et al. 1996 Endocrinology 137: 4592–4604; Bodine et al. 1997 J. Cell. Biochem. 65: 368–387). […] However, in contrast to osteosarcoma cells (Stein and Lian 1993 Endocrine Rev. 14: 424–442), the hOB cell lines were faithful to the proliferation/differentiation relationship at the nonpermissive temperature (>37° C.) when the T-antigen mutant is inactivated. The cell lines were seeded into 150 mm dishes at ˜40,000 cells/cm^2 with growth medium [D-MEM/F-12 containing 10% (v/v) heat-inactivated fetal bovine serum (FBS), 1% (v/v) Penicillin-Streptomycin and 2 mM GlutaMAX-1] and incubated overnight at 34° C. The next day, the medium was removed, the cells were rinsed with phosphate-buffered saline (PBS), 20 ml of serum-free medium was added to the dishes [phenol red-free D-MEM/F-12 (Gibco/BRL) containing 0.25% (w/v) bovine serum albumin (BSA, Pentex crystallized, Bayer), 1% (v/v) Penicillin-Streptomycin, 2 mM GlutaMAX-1, […] ascorbate-2-phosphate (Wako), and 10 nM menadione sodium bisulfite (vitamin K3)], and the dishes were incubated at 39° C. for 24 hr. The next day, the medium was removed and the cells were treated at 39° C. for an additional 24 hr with 20 ml of fresh serum-free medium containing either vehicle (Control), 8 nM human parathyroid hormone 1–34 (PTH), 100 nM prostaglandin E2 (PGE2) or 0.1 nM human transforming growth factor-β1 (TGF-β1). PTH, PGE2 and TGF-β1 are known osteogenic agents (Whitfield and Morley 1995 Trends Pharmaceut. Sci. 16:382–386; Jee and Ma 1997 Bone 21:297–304; Centrella et al. 1994 Endocrine Rev. 15:27–39). After the treatment period, the dishes were rinsed with PBS and total cellular RNA was isolated from the nontreated and treated cells using TRIzol according to the manufacturers instructions (GibcoBRL). RADE was then performed with the isolated RNA samples as above; the regulated gene fragments were identified, cloned and sequenced. These experiments identified a total of 82 differentially expressed genes. A BLAST (basic local alignment search tool) search of the public data bases was performed on the RADE-obtained gene fragments; one of the gene fragments was highly homologous to mouse SFRP-1. This gene fragment was identified during RADE using the following primer pair: 5′-[…]-3′ (HT11A)3′ end (reverse primer) and 5′-[…]-3′ (H-AP1) 5′ end (forward primer), which sequences are SEQ ID NO 11 and SEQ ID NO 12, respectively. The expression and regulation of the gene fragment having homology to mouse cDNA SFRP-1 was confirmed by Northern blot analysis.
In order to confirm the regulation of hOB SFRP gene expression by different osteogenic agents (i.e., the DNA fragment identified in Example 1, above), the hOB cell lines were treated with PTH, PGE2, and TGF-β1; RNA was then isolated for Northern hybridizations. The experiments were performed as follows. The hOB cell lines were seeded into 150 mm dishes and treated as described in Example 1, except that polyA+ RNA was isolated from total cellular RNA using Oligotex mRNA maxi kits as described by the manufacturer (Qiagen). Northern blot analysis was performed using either the excised RADE hOB SFRP gene fragment, the cloned hOB SFRP gene fragment or the cloned full-length hOB SFRP cDNA as a ^32P-labeled probe (as described in Bodine et al. 1996 J. Bone Miner. Res. 11: 806–819, which is incorporated herein). Each of these probes detected a 4.4–4.6 kb message in the hOB cells. […]

hOB SFRP mRNA [2] = test: TaqMan quantitative RT-PCR of hOB SFRP mRNA; format: cell-based, human; conditions: 24 hr
Procedure: In a similar manner, the hOB-01-C1 cells were seeded into 100 mm dishes and treated for 24 hr with increasing concentrations of TGF-β1. Total RNA was then isolated from the cells, and hOB SFRP mRNA was measured by TaqMan quantitative RT-PCR. TGF-β1 suppressed SFRP gene expression by approximately 70% in a dose-dependent manner with an IC50 of about 4 pM.
In addition to the hOB cell lines from which SFRP was initially identified, additional in vitro human osteoblast models were examined for the presence of the gene. SaOS-2 human osteosarcoma osteoblast-like cells were obtained from the American Type-Culture Collection (ATCC) and were cultured at 37° C. in McCoy's 5A Modified medium containing 10% FBS, 1% (v/v) Penicillin-Streptomycin and 2 mM GlutaMAX-1. Likewise, explant cultures of normal human osteoblasts (hOBs) were established from cancellous bone chips as previously described (Bodine et al. 1996 J. Bone Miner. Res. 11: 806–819, which is incorporated herein by reference). The cells were then seeded into 150 mm dishes and treated as described in Examples 1 and 4, except that the cells were incubated at 37° C. instead of 39° C. PolyA+ RNA Northern blot analysis was performed using the cloned 1.1 kb hOB SRFP gene fragment as a ^32P-label). SaOS-2 cells expressed relatively low basal levels of SFRP mRNA which was not regulated by treatment with either PTH, PGE2 or TGF-β1 (FIG. 7). It was difficult to quantify expression of this gene in these cells, since the level of expression was low. In contrast, normal hOB cells expressed higher basal levels of SFRP message, and treatment of the cells with 100 nM PGE2 for 24 hr appeared to slightly up-regulate the steady-state levels of this mRNA (˜1.3-fold). […] Due to the low basal level expression in osteosarcoma cells, these cells may not be satisfactory in vitro models to study the regulation of the SFRP gene. Since the gene is expressed and regulated by PGE2 in cultures of normal human osteoblasts, the use of the hOB cell lines described in the present invention is validated for in vitro osteoblast models.

Molecule	regulation of SFRP mRNA (hOB SFRP mRNA [1]; 24 hr, 37° C.)	suppression of hOB SFRP mRNA levels (hOB SFRP mRNA [1]; hOB-01-C1 cells, 100 pM, 24 hr)	IC50 (hOB SFRP mRNA [2]; hOB-01-C1 cells, read-out: IC50 for suppression of SFRP gene expression)	suppression of SFRP gene expression (hOB SFRP mRNA [2]; hOB-01-C1 cells, increasing concentrations)	time course of hOB SFRP mRNA expression (hOB SFRP mRNA [1]; hOB-03-C5 cells, 100 nM, 2 to 24 hr)	hOB SFRP mRNA expression (hOB SFRP mRNA [1]; hOB-03-C5 cells, 100 nM, 24 hr)	EC50 (hOB SFRP mRNA [1]; hOB-03-C5 cells, increasing concentrations, 24 hr, read-out: EC50 for up-regulation of hOB SFRP mRNA expression)	EC50 for up-regulation of hOB SFRP mRNA, times higher than in the hOB-03-C5 cells (hOB SFRP mRNA [1]; hOB-03-CE6 cells)	hOB SFRP mRNA expression (hOB SFRP mRNA [1]; maturation-stage hOB-03-CE6 cells)	up-regulation of steady-state SFRP mRNA levels (hOB SFRP mRNA [1]; normal hOB cells (explant cultures), 100 nM, 24 hr, 37° C.)	up-regulation of SFRP message (hOB SFRP mRNA [2]; normal hOB cells (explant cultures), 100 nM)
human transforming growth factor-β1 [TGF-β1]	not regulated	80%	~4 pM	approximately 70%	–	–	–	–	–	–	–
CCCCC[C@H](O)/C=C/[C@H]1[C@H](O)CC(=O)[C@@H]1C/C=C\CCCC(=O)O [PGE2, prostaglandin E2]	not regulated	–	–	–	up-regulated hOB SFRP mRNA expression in a time-dependent manner	completely up-regulated	~8 nM	about 10 times	up-regulation	~1.3 fold	10 fold
